In patent US10155802B2, “Locally-active anticoagulants and anti-inflammatory agents” (priority 2011, dated 2018):

Columns and labels:
thrombin = thrombin (Homo sapiens, UniProt P00734); test: Fibrinogen clotting assay (concentration needed to double the clotting time = IC50); type: biochemical; settings: for IC50: IC50 (anti-clotting)
Experimental: The same enzyme kinetic assays were used to determine the inhibitory activities of MH2 and two MH2-derived peptides, MH2-allGS and MH2-GS (Table 4). Clotting assays were carried out to determine the inhibitory activities of the rest of the MH2 peptides by use of the protocols described previously (DiMaio 1990; Taka 2000; Su 2004). The assay employs bovine plasma fibrinogen dissolved at 0.1% in 50 mM Tris-Cl, 100 mM NaCl, 0.1% PEG-8000 at pH 7.6 (i.e. the clotting buffer). In addition to the use of optical densities or ODs (Gill 1989), concentrations of the peptide stock solutions were ranked (and corrected when necessary) by use of quantitative proton NMR spectroscopy (Cavaluzzi 2002). Each assay mixture contained a certain concentration of the peptide, and the reaction was started by the addition of human thrombin to a final concentration of approximately 0.5 nM. Optical absorbance of the assay mixtures was measured at 420 nm using the Spectramax™ plate reader. The onset clotting time was determined as an intersection of the baseline and the tangent line at point of inflection of the clotting curve. The concentration of an MH2 peptide needed to double the clotting time was defined as IC50 (DiMaio 1990) as illustrated in FIG. 4 and summarized in Table 4. The correlation between IC50 values and linker unfolding is similar to that for the BTI series of inhibitors (Table 3). […] (Table 3).

[1] = test system: FeCl3-induced arterial thrombosis (carotid artery); test: FeCl3-induced arterial model of thrombosis in rats (time to occlusion); type: in vivo; settings: rat, single bolus 0.2 mg/kg plus maintenance infusion 0.00433 mg/kg/min
Experimental: Male Sprague-Dawley rats (250-310 g; Charles River Laboratories, St-Constant, QC, Canada) were acclimated for at least 3 days prior to the start of the study. Animals were housed in microisolator cages and were kept on a 12-hr light/dark cycle with constant temperature and humidity. Food and water were provided ad libitum. Various anti-thrombotic agents and peptides of this invention were dissolved in saline (0.9% sodium chloride) prior to use.
The FeCl3-induced arterial model of thrombosis in rats was also generated as described by Wang and Xu (Wang 2005) with some modifications (Couture 2011). Briefly, rats were anesthetized with a 2.5% isoflurane/oxygen mixture and placed on a heat source (35-37° C.). An incision was made over the right carotid artery, and a segment of the artery was exposed via blunt dissection. A Doppler flow probe (Model MA1PRB, Transonic System Inc., Ithaca, N.Y., USA) connected to a perivascular flow module (TS420, Transonic System Inc., Ithaca, N.Y., USA) was then attached to the carotid artery to monitor blood flow. Data were collected and analyzed using the MP100 Biopac™ Systems (Biopac Systems, Santa Barbara, Calif., USA), and the AcgKnowledge™ software (Biopac Systems, Santa Barbara, Calif., USA), respectively. Baseline blood flow was recorded for a minimum of 15 minutes until readings stabilized. Aquasonic 100 gel (Parker Laboratories, Inc., Fairfield, N.J., USA) was added to help conductivity and any fluid accumulating at the site of surgery was removed during data sampling without touching the probe. […] One minute after drug administration, a piece of filter paper (Gel Blot Paper, GB003, Whatman, Piscataway, N.J., USA; 7 mm diameter) saturated with 20% FeCl3 (EMD Chemicals Inc., Gibbstown, N.J., USA) was placed on the exposed surface of the carotid artery and incubated for 3.5 minutes. During the application of FeCl3, the neck region was covered with aluminum foil. At the end of the incubation period, the filter paper was removed and the exposed carotid was covered with a saline-soaked gauze. Time to occlusion was defined as the time from the application of FeCl3 until blood flow decreased to zero. […] Preparing and processing each animal took approximately 1 hr and 7 animals were treated each day. Control animals were always included when the other treatments were being administered. For this reason, the number of animals in the control group is higher than that of the treated-groups.
Statistical analysis was conducted using GraphPad™ Prism (GraphPad Software Inc., San Diego Calif., USA). Data were analyzed using one-way ANOVA with post-hoc Bonferroni correction for multiple comparisons. The relationship between thrombus weight and thrombus volume was determined by linear regression. […]

pooled human plasma = test: Prothrombin time (PT, thromboplastin) clotting assay; type: biochemical
In short: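 Test compound diluted in HBS (20 mM HEPES, 150 mM NaCl, pH 7.4), mixed with pooled normal human plasma at 37 °C; APTT started with APTT reagent then CaCl2, PT with thromboplastin. APTT value is concentration giving 50% of maximum clotting delay (MCT50); PT IC50 is concentration prolonging clotting time by 50%.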

`CC[C@H](C)[C@H](N)C(=O)N[C@@H](CCCNC(=N)N)C(=O)N[C@@H](Cc1ccccc1)C(=O)N[C@H](C(=O)N[C@@H](CC(=O)O)C(=O)NCC(=O)N[C@@H](CCC(=O)O)C(=O)N[C@@H](Cc1c[nH]c2ccccc12)C(=O)N[C@H](C(=O)N[C@@H](Cc1c[nH]c2ccccc12)C(=O)N[C@@H](CC(=O)O)C(=O)N[C@@H](CC(=O)O)C(=O)N[C@@H](C)C(=O)N[C@H](C(=O)N[C@@H](CCCCN)C(=O)N[C@H](C(=O)N[C@@H](Cc1c[nH]c2ccccc12)C(=O)N[C@H](C(=O)N[C@@H](Cc1c[nH]c2ccccc12)C(=O)N[C@H](C(=O)N[C@@H](CCC(=O)O)C(=O)NCC(=O)N[C@@H](CC(=O)O)C(=O)N[C@@H](Cc1ccccc1)C(=O)N[C@@H](CCC(=O)O)C(=O)N[C@@H](CCC(=O)O)C(=O)N[C@H](C(=O)N1CCC[C@H]1C(=O)N[C@@H](CCC(=O)O)C(=O)N[C@@H](CCC(=O)O)C(=O)N[C@@H](Cc1ccc(O)cc1)C(=O)N[C@@H](CC(C)C)C(=O)N[C@@H](CCC(N)=O)C(=O)O)[C@@H](C)CC)[C@@H](C)O)[C@@H](C)O)[C@@H](C)O)[C@@H](C)O)[C@@H](C)O)[C@@H](C)O` [MH2-wZIP4] gave a Ki (thrombin) of about 150 nM, an IC50 (thrombin; T = 25° C.) of about 250 nM and an IC50 (thrombin; T = 37° C.) of 154 nM. The “anti-thrombotic efficacy in arterial model” value [1] was “increases the efficacy”, the “Plateau of prothrombin time dose response” value (pooled human plasma; 37° C.) was “(Plateau at >900 nM)” and the IC50 (pooled human plasma; 37° C., concentration that prolongs clotting time by 50%) was 1000 nM. The “anticoagulant effect in PT versus APTT assays” value (pooled human plasma; in words) was “greatly-reduced anticoagulant potency in both the PT and APTT assays”.
